pIC50: −log10 of the molar value. Counter-ions that a name gives are not always drawn. Like-named read-outs stand apart in the source and are kept apart here.
Tests used:
[1] = system: HIV-infected MT-4 cells; experiment: Inhibition of the HIV-induced cytopathic effect in MT-4 cells (MTT); assay type: cell-based; conditions: for SI (selectivity index, ratio of CC50 to IC50): CC50/IC50 in MT-4 cells; for pIC50: HIV-infected MT-4 cells, MTT, OD 540 nm
Method: (§1) A rapid, sensitive and automated assay procedure was used for the in vitro evaluation of anti-HIV agents. An […] T4-cell line, MT-4, which was previously shown (Koyanagi et al., Int. J. Cancer, 36, 445-451, 1985) to be highly susceptible to and permissive for HIV infection, served as the target cell line. Inhibition of the HIV-induced cytopathic effect was used as the end point. The viability of both HIV- and mock-infected cells was assessed spectrophotometrically via the in situ reduction of 3-(4,5-dimethylthiazol-2-yl)-2,5-diphenyltetrazolium bromide (MTT). […] The percent protection achieved by the compound in HIV-infected cells was calculated by the following formula:
(§2) [formula] whereby (ODT)HIV is the optical density measured with a given concentration of the test compound in HIV-infected cells; (ODC)HIV is the optical density measured for the control untreated HIV-infected cells; (ODC)MOCK is the optical density measured for the control untreated mock-infected cells; all optical density values were determined at 540 nm. […] The ratio of CC50 to IC50 was defined as the selectivity index (SI).

[2] = Cytotoxicity in mock-infected MT-4 cells (MTT); assay type: cell-based; conditions: human, OD 540 nm
Method: as §1, §2

[3] = system: mock-infected MT-4 cells; experiment: Cytotoxicity in mock-infected MT-4 cells (MTT); assay type: cell-based; conditions: read-out: CC50 (50% cytotoxic concentration), OD 540 nm
Method: as §1, §2

[4] = Human immunodeficiency virus 1, MT4, read-out: IC50 (50% inhibitory concentration; dose achieving 50% protection)
[5] = read-out: IC50 (50% inhibitory concentration; dose achieving 50% protection)

Row | Compound | melting point | SI (selectivity index, ratio of CC50 to IC50) [1] | pIC50 [1, 4] | CC50 [2] [µM] | pIC50 [1, 5] | CC50 [3] [µM]
1 | N#Cc1ccc(Nc2nc(Cc3c(Cl)cccc3Cl)nc(N3CC(O)CO3)n2)cc1 (centres unmarked) (as salt: trifluoroacetate) [Compound 11] | 175 °C |  |  |  |  | 
2 | C=CCONc1nc(Cc2c(Cl)cccc2Cl)nc(Nc2ccc(C#N)cc2)n1 (as salt: trifluoroacetate) [Compound 43] | 225 to 227 °C |  |  |  |  | 
3 | N#Cc1ccc(Nc2nc(Cl)nc(Cc3c(Cl)cccc3Cl)n2)cc1 [Compound 1, 4-[[4-chloro-6-[(2,6-dichlorophenyl)methyl]-1,3,5-triazin-2-yl]amino]-benzonitrile] | 243 to 244 °C |  |  |  |  | 
4 | COCc1cc(Oc2c(C)cc(C#N)cc2C)nc(Nc2ccc(C#N)cc2)n1 [Compound 2] | 203 to 204 °C | 31621 | 8.80 | 50.1 |  | 
5 | COCc1cc(Nc2cc(C)c(F)cc2Cl)nc(Nc2ccc(C#N)cc2)n1 [Compound 3] | 213 to 214 °C | >1996 | 7.30 | > 100 |  | 
6 | N#Cc1ccc(Nc2nc(Cc3c(Cl)cccc3Cl)nc(N3C(=O)COCC3=O)n2)cc1 [Compound 4] | 268 to 269 °C | 25197 | 8.80 | 39.8 |  | 
7 | N#Cc1ccc(Nc2nc(C#N)nc(Cc3c(Cl)cccc3Cl)n2)cc1 [Compound 5] | 221 to 230 °C | 501 | 7.70 | 10 |  | 
8 | N#Cc1ccc(Nc2nc(S)nc(Cc3c(Cl)cccc3Cl)n2)cc1 [Compound 6] | 254 to 255 °C |  |  |  |  | 
9 | CSc1nc(Cc2c(Cl)cccc2Cl)nc(Nc2ccc(C#N)cc2)n1 [Compound 7] | 184 to 185 °C | 1990 | 7.70 | 39.8 |  | 
10 | C[S+]([O-])c1nc(Cc2c(Cl)cccc2Cl)nc(Nc2ccc(C#N)cc2)n1 (centres unmarked) [Compound 8] | 219 to 221 °C |  |  |  |  | 
11 | COc1nc(Cc2c(Cl)cccc2Cl)nc(Nc2ccc(C#N)cc2)n1 [Compound 9] | 198 to 199 °C | >10000 | 8.00 | > 100 |  | 
12 | N#Cc1ccc(Nc2nc(O)nc(Cc3c(Cl)cccc3Cl)n2)cc1 [Compound 10] | > 300 °C |  |  |  |  | 
13 | N#Cc1ccc(Nc2nc(Cc3c(Cl)cccc3Cl)nc(N3CC(O)CO3)n2)cc1 (centres unmarked) [Compound 11] |  | 25138 | 8.60 | 63.1 |  | 
14 | COCc1nc(Nc2ccc(C#N)cc2)nc(Oc2c(C)cc(C#N)cc2C)c1Br [Compound 12, 4-[[[5-bromo-4-(4-cyano-2,6-dimethylphenoxy)-6-methoxymethyl]-2-pyrimidinyl]amino]benzonitrile] | 198 to 199 °C | >25000 | 8.40 | > 100 |  | 
15 | Cc1cc(C#N)cc(C)c1Oc1nc(Nc2ccc(C#N)cc2)nc(CO)c1Br [Compound 13, 4-[[[5-bromo-4-(4-cyano-2,6-dimethylphenoxy)-6-hydroxymethyl]-2-pyrimidinyl]amino]benzonitrile] |  | >25000 | 8.40 | > 100 |  | 
16 | N#Cc1ccc(Nc2nc(CO)cc(Oc3c(Br)cc(C#N)cc3Br)n2)cc1 [Compound 14] |  | 2500 | 8.40 | > 10 |  | 
17 | N#Cc1ccc(Nc2nc(CO)c(Br)c(Oc3c(Br)cc(C#N)cc3Br)n2)cc1 [Compound 16, 4-[[[5-bromo-4-(4-cyano-2,6-dibromophenoxy)-6-hydroxymethyl]2-pyrimidinyl]amino]benzonitrile] |  | >39841 | 7.60 | > 100 |  | 
18 | Cc1cc(C)c(Nc2nc(Nc3ccc(C#N)cc3)nc(C(N)=O)n2)c(C)c1 [Compound 19, 6-[(4-cyanophenyl)amino]-4-[(2,4,6-trimethylphenyl)amino]-1,3,5-triazine-2-carboxamide] |  | 3162 | 8.90 | 3.98 |  | 
19 | CSc1nc(Nc2ccc(C#N)cc2)nc(Nc2c(C)cc(C)cc2C)n1 [Compound 20] |  |  |  |  | 8.70 | 3.98
20 | Cc1cc(C)c(Oc2cc(C(F)(F)F)nc(Nc3ccc(C#N)cc3)n2)c(C)c1 [Compound 25] |  |  |  |  | 7.10 | > 100
21 | Cc1cc(C)c(Oc2nc(Nc3ccc(C#N)cc3)nc(C(N)=O)n2)c(C)c1 [Compound 26] |  |  |  |  | 9.00 | 2
22 | COCc1cc(Oc2c(Br)cc(C#N)cc2Br)nc(Nc2ccc(C#N)cc2)n1 [Compound 27] |  |  |  |  | 8.00 | > 10
23 | Cc1cc(C#N)cc(C)c1Nc1cc(C(F)(F)F)nc(Nc2ccc(C#N)cc2)n1 [Compound 33, 4-[[[6-trifluoromethyl-2-(4-cyanophenylamino)]-4-pyrimidinyl]amino]-3,5-dimethylbenzonitrile] | 249 to 251 °C | 1586 | 8.50 | 5.01 |  | 

Row | Compound | melting point | SI (selectivity index, ratio of CC50 to IC50) [1] | pIC50 [1, 4] | CC50 [2] [µM] | pIC50 [1, 5] | CC50 [3] [µM]
24 | N#Cc1ccc(Nc2nc(Cc3c(Cl)cccc3Cl)nc(N3CCC(=O)O3)n2)cc1 [Compound 35] |  | 794 | 7.20 | 50.1 |  | 
25 | N#Cc1ccc(Nc2nc(Cc3c(Cl)cccc3Cl)nc(N3C(=O)CCCC3=O)n2)cc1 [Compound 37] | 278 to 282 °C |  |  |  |  | 
26 | N#Cc1ccc(Nc2nc(Cc3c(Cl)cccc3Cl)nc(C(N)=O)n2)cc1 [Compound 38] | 262 to 263 °C | >39841 | 8.60 | > 100 |  | 
27 | N#Cc1ccc(Nc2nc(Cc3c(Cl)cccc3Cl)cc(-n3ccnc3)n2)cc1 [Compound 39] | 275 to 285 °C |  |  |  |  | 
28 | NC(=O)c1ccc(Nc2nc(Cc3c(Cl)cccc3Cl)nc(C(N)=O)n2)cc1 [Compound 40] | 287 to 295 °C |  |  |  |  | 
29 | Clc1cccc(Cl)c1Cc1nc(Nc2ccc(-c3nnn[nH]3)cc2)nc(-c2nnn[nH]2)n1 [Compound 42] | 249 to 252 °C |  |  |  |  | 
30 | C=CCONc1nc(Cc2c(Cl)cccc2Cl)nc(Nc2ccc(C#N)cc2)n1 [Compound 43] |  | 3981 | 7.80 | 63.1 |  | 
31 | N#Cc1ccc(Nc2nc(Cc3c(Cl)cccc3Cl)nc(-n3[nH]nnc3=N)n2)cc1 [Compound 46] | 302 to 304 °C |  |  |  |  | 
32 | N#Cc1ccc(Nc2nc(Cc3c(Cl)cccc3Cl)nc(N3C(=O)CCC3=O)n2)cc1 [Compound 48] |  |  |  |  | 8.10 | > 200
33 | N#Cc1ccc(Nc2nc(F)nc(Cc3c(Cl)cccc3Cl)n2)cc1 [Compound 49] | 199 to 201 °C |  |  |  |  | 
34 | COc1ccc(Nc2nc(Oc3c(C)cc(C#N)cc3C)cc(C(N)=O)n2)cn1 [Compound 56] |  | 1585 | 7.20 | > 100 |  | 
35 | CCOc1nc(Cc2c(Cl)cccc2Cl)nc(Nc2ccc(C#N)cc2)n1 [Compound 58] |  |  |  |  | 7.60 | 50.1
36 | Cc1cc(C#N)cc(C)c1Oc1nc(Cl)nc(Nc2ccc(C#N)cc2)n1 [Compound 60] | 260 to 265 °C |  |  |  |  | 
37 | Cc1cc(C)c(Nc2cc(C(N)=O)nc(Nc3ccc(C#N)cc3)n2)c(C)c1 [Compound 61, 2-[(4-cyanophenyl)amino]-6-[(2,4,6-trimethylphenyl)amino]-4-pyrimidine carboxamide] |  | 19968 | 8.60 | 50.1 |  | 
38 | COC(=O)c1cc(Nc2c(C)cc(C)cc2C)nc(Nc2ccc(C#N)cc2)n1 [Compound 62] |  | 1261 | 8.20 | 7.94 |  | 
39 | CNC(=O)c1cc(Nc2c(C)cc(C)cc2C)nc(Nc2ccc(C#N)cc2)n1 [Compound 63] |  | 7946 | 8.30 | 39.8 |  | 
40 | COc1ccc(Nc2nc(Oc3c(C)cc(C#N)cc3C)cc(C(=O)N(C)C)n2)cn1 [Compound 65] |  | 1000 | 7.10 | 79.4 |  | 
41 | Cc1cc(C)c(Nc2cc(C(=O)N(C)C)nc(Nc3ccc(C#N)cc3)n2)c(C)c1 [Compound 66] |  | 19950 | 8.80 | 31.6 |  | 
42 | COC(=O)c1cc(Oc2c(C)cc(C#N)cc2C)nc(Nc2ccc(C#N)cc2)n1 [Compound 71] | 258 to 259 °C (dec.) | >3984 | 7.60 | > 100 |  | 
43 | N#Cc1ccc(Nc2nc(Cl)nc(Oc3c(Cl)cc(Cl)cc3Cl)n2)cc1 [Compound 72] | 238 to 239 °C |  |  |  |  | 
44 | Cc1cc(C#N)cc(C)c1Oc1nc(Nc2ccc(C#N)cc2)nc(CCl)c1Br [Compound 73] | 238 to 240 °C |  |  |  |  | 
45 | CNCc1nc(Nc2ccc(C#N)cc2)nc(Oc2c(C)cc(C#N)cc2C)c1Br [Compound 74] | 223 to 224 °C |  |  |  |  | 
46 | Cc1cc(C)c(Nc2nc(Nc3ccc(C#N)cc3)nc(C(N)=O)c2Br)c(C)c1 [Compound 98, 5-bromo-2-[(4-cyanophenyl)amino]-6-[(2,4,6-trimethylphenyl)amino]-4-pyrimidine carboxamide] |  | 15861 | 8.50 | 50.1 |  | 

Reference: US7276510B2, “HIV replication inhibitors” (Janssen Pharmaceutica, Inc., priority 2000, dated 2007)
